US20170150719A1, “FUNGICIDAL PYRAZOLES AND THEIR MIXTURES” (E I DU PONT DE NEMOURS AND COMPANY, priority 2010, published 2017)

How the values were obtained:
[1] = tested on: Puccinia recondita f. sp. tritici; experiment: Test G: wheat leaf rust, spray after inoculation (curative) on wheat seedlings, visual disease rating; assay type: in vivo; conditions: 100 = 100% disease control; for Test G rating (% disease control): spray after inoculation, rating without asterisk; for Test G rating (disease control) / pest or weed control at 200 µg/mL: sprayed after inoculation, 0 = no disease control
From the text: (§1) A hyphen (-) indicates no test results.

[2] = tested on: Blumeria graminis f. sp. tritici; experiment: Test I: wheat powdery mildew, preventive spray on wheat seedlings, visual disease rating; conditions: 100 = 100% disease control; for Test I rating (% disease control) / Test I rating (disease control): wheat powdery mildew; for Test I rating (% disease control): preventive spray, rating without asterisk; for Test I rating (disease control) / pest or weed control at 200 µg/mL: 0 = no disease control relative to the controls; for pest or weed control at 200 µg/mL: Blumeria graminis, in Triticum aestivum, read-out: Test I rating (disease control), wheat powdery mildew
Botrytis cinerea = experiment: Test A: tomato Botrytis, preventive spray on tomato seedlings, visual disease rating; conditions: 100 = 100% disease control; for Test A rating (% disease control) / Test A rating (disease control): tomato Botrytis; for Test A rating (% disease control): preventive spray, 0 = no control relative to controls, rating without asterisk; for Test A rating (disease control) / pest or weed control at 200 µg/mL: 0 = no disease control relative to the controls; for pest or weed control at 200 µg/mL: Botrytis cinerea, in Solanum lycopersicum, read-out: Test A rating (disease control), tomato Botrytis
Alternaria solani = experiment: Test B: tomato early blight, preventive spray on tomato seedlings, visual disease rating; conditions: for Test B rating (% disease control) / Test B rating (disease control): tomato early blight, 100 = 100% disease control; for Test B rating (% disease control): preventive spray, rating without asterisk; for Test B rating (disease control): 0 = no disease control relative to the controls; for pest or weed control at 200 µg/mL: Alternaria solani, in Solanum lycopersicum, read-out: Test B rating (disease control)
[3] = tested on: Puccinia recondita f. sp. tritici; experiment: Test H: wheat leaf rust, preventive spray on wheat seedlings, visual disease rating; conditions: 100 = 100% disease control; for Test H rating (% disease control) / Test H rating (disease control): wheat leaf rust; for Test H rating (% disease control): preventive spray, rating without asterisk; for Test H rating (disease control): sprayed the day before inoculation; for Test H rating (disease control) / pest or weed control at 200 µg/mL: 0 = no disease control; for pest or weed control at 200 µg/mL: read-out: Test H rating (disease control), wheat leaf rust, sprayed the day before inoculation
Septoria nodorum = experiment: Test E: Septoria glume blotch, preventive spray on wheat seedlings, visual disease rating; conditions: 100 = 100% disease control; for Test E rating (% disease control): Septoria glume blotch on wheat, preventive spray, rating without asterisk; for Test E rating (disease control): Septoria glume blotch; for Test E rating (disease control) / pest or weed control at 200 µg/mL: 0 = no disease control relative to the controls; for pest or weed control at 200 µg/mL: Parastagonospora nodorum, in Triticum aestivum, read-out: Test E rating (disease control), Septoria glume blotch
Phytophthora infestans = experiment: whole plant or invertebrate; assay type: in vivo; conditions: for Test C rating (% disease control) / Test C rating (disease control): tomato late blight, 100 = 100% disease control; for Test C rating (% disease control): preventive spray, rating without asterisk; for Test C rating (disease control): 0 = no disease control relative to the controls; for pest or weed control at 200 µg/mL: Phytophthora infestans, in Solanum lycopersicum, read-out: Test C rating (disease control)
Septoria tritici = experiment: Test F: wheat leaf blotch, preventive spray on wheat seedlings, visual disease rating; assay type: in vivo; conditions: 100 = 100% disease control; for Test F rating (% disease control): preventive spray, rating without asterisk; for Test F rating (disease control) / pest or weed control at 200 µg/mL: 0 = no disease control relative to the controls; for pest or weed control at 200 µg/mL: Zymoseptoria tritici
From the text: as §1

Cc1nn(C)c(Nc2c(F)cc(Cl)cc2I)c1-c1ccc(F)cc1F [compound 180]
Test G rating (% disease control) [1]: 98% | Test I rating (% disease control) [2]: 100% | Test A rating (% disease control) (Botrytis cinerea): 100% | Test B rating (% disease control) (Alternaria solani): 100% | Test H rating (% disease control) [3]: 100% | Test E rating (% disease control) (Septoria nodorum): 99% | Test C rating (% disease control) (Phytophthora infestans): 9% | Test F rating (% disease control) (Septoria tritici): 100%

Cc1nn(C)c(Oc2c(F)cc(C#N)cc2F)c1-c1ccc(F)cc1F [compound 45]
Test G rating (disease control) [1]: 0% | Test I rating (disease control) [2]: 99% | Test A rating (disease control) (Botrytis cinerea): 100% | Test B rating (disease control) (Alternaria solani): 99% | Test H rating (disease control) [3]: 100% | Test E rating (disease control) (Septoria nodorum): 99% | Test C rating (disease control) (Phytophthora infestans): 0% | Test F rating (disease control) (Septoria tritici): 98%

Cc1nn(C)c(Nc2c(Cl)cc(F)cc2Cl)c1-c1ccc(F)cc1Cl [Compound 138, 4-(2-chloro-4-fluorophenyl)-N-(2,6-dichloro-4-fluorophenyl)-1,3-dimethyl-1H-pyrazol-5-amine]
pest or weed control at 200 µg/mL [1]: 17% | pest or weed control at 200 µg/mL [2]: 99% | pest or weed control at 200 µg/mL (Botrytis cinerea): 100% | pest or weed control at 200 µg/mL (Alternaria solani): 66% | pest or weed control at 200 µg/mL [3]: 100% | pest or weed control at 200 µg/mL (Septoria nodorum): 0% | pest or weed control at 200 µg/mL (Phytophthora infestans): 0% | pest or weed control at 200 µg/mL (Septoria tritici): 100%

Cc1nn(C)c(Nc2c(F)cc(Cl)cc2Cl)c1-c1ccc(F)cc1F [Compound 161, N-(2,4-dichloro-6-fluorophenyl)-4-(2,4-difluorophenyl)-1,3-dimethyl-1H-pyrazol-5-amine]
Test G rating (disease control) [1]: 100% | Test I rating (disease control) [2]: 100% | Test A rating (disease control) (Botrytis cinerea): 100% | Test B rating (disease control) (Alternaria solani): 99% | Test H rating (disease control) [3]: 100% | Test E rating (disease control) (Septoria nodorum): 100% | pest or weed control at 200 µg/mL (Phytophthora infestans): 0% | Test F rating (disease control) (Septoria tritici): 99%

Cc1nn(C)c(Nc2c(F)cc(Cl)cc2Br)c1-c1ccc(F)cc1Cl [compound 186]
Test G rating (% disease control) [1]: 100% | Test I rating (% disease control) [2]: 100% | Test A rating (% disease control) (Botrytis cinerea): 100% | Test B rating (% disease control) (Alternaria solani): 100% | Test H rating (% disease control) [3]: 100% | Test E rating (% disease control) (Septoria nodorum): 100% | Test C rating (% disease control) (Phytophthora infestans): 0% | Test F rating (% disease control) (Septoria tritici): 100%

CCOc1cc(F)c(-c2c(C)nn(C)c2Nc2c(F)cc(F)cc2Cl)c(F)c1 [compound 196]
Test G rating (% disease control) [1]: 0% | Test I rating (% disease control) [2]: 100% | Test A rating (% disease control) (Botrytis cinerea): 100% | Test B rating (% disease control) (Alternaria solani): 100% | Test H rating (% disease control) [3]: 94% | Test E rating (% disease control) (Septoria nodorum): 95% | Test C rating (% disease control) (Phytophthora infestans): 0% | Test F rating (% disease control) (Septoria tritici): 100%

Cc1nn(C)c(Nc2c(F)cc(F)cc2Cl)c1-c1ccc(F)cc1Cl [Compound 82, N-(2-chloro-4,6-difluorophenyl)-4-(2-chloro-4-fluorophenyl)-1,3-dimethyl-1H-pyrazol-5-amine]
pest or weed control at 200 µg/mL [1]: 97% | pest or weed control at 200 µg/mL [2]: 100% | pest or weed control at 200 µg/mL (Botrytis cinerea): 99% | pest or weed control at 200 µg/mL (Alternaria solani): 100% | pest or weed control at 200 µg/mL [3]: 100% | pest or weed control at 200 µg/mL (Septoria nodorum): 100% | pest or weed control at 200 µg/mL (Phytophthora infestans): 0% | pest or weed control at 200 µg/mL (Septoria tritici): 100%

COc1ccc(-c2c(C)nn(C)c2Nc2c(F)cc(Cl)cc2F)c(F)c1 [compound 185]
Test G rating (% disease control) [1]: 0% | Test I rating (% disease control) [2]: 100% | Test A rating (% disease control) (Botrytis cinerea): 100% | Test B rating (% disease control) (Alternaria solani): 99% | Test H rating (% disease control) [3]: 99% | Test E rating (% disease control) (Septoria nodorum): 60% | Test C rating (% disease control) (Phytophthora infestans): 0% | Test F rating (% disease control) (Septoria tritici): 100%

Cc1nn(C)c(Nc2c(F)cc(Br)cc2F)c1-c1c(F)cccc1F [Compound 145, N-(4-bromo-2,6-difluorophenyl)-4-(2,6-difluorophenyl)-1,3-dimethyl-1H-pyrazol-5-amine]
pest or weed control at 200 µg/mL [1]: 0% | pest or weed control at 200 µg/mL [2]: 90% | pest or weed control at 200 µg/mL (Botrytis cinerea): 99% | pest or weed control at 200 µg/mL (Alternaria solani): 0% | pest or weed control at 200 µg/mL [3]: 28% | pest or weed control at 200 µg/mL (Septoria nodorum): 0% | pest or weed control at 200 µg/mL (Phytophthora infestans): 0% | pest or weed control at 200 µg/mL (Septoria tritici): 100%

Cc1nn(C)c(Nc2ccc(C#N)cc2F)c1-c1c(F)cc(F)cc1F [compound 34]
Test G rating (disease control) [1]: 0% | Test I rating (disease control) [2]: 99% | Test A rating (disease control) (Botrytis cinerea): 100% | Test B rating (disease control) (Alternaria solani): 99% | Test H rating (disease control) [3]: 99% | Test E rating (disease control) (Septoria nodorum): 94% | Test C rating (disease control) (Phytophthora infestans): 9% | Test F rating (disease control) (Septoria tritici): 100%

Cc1nn(C)c(Nc2ccc(C#N)cc2F)c1-c1c(F)cccc1F [compound 59]
Test G rating (disease control) [1]: 9% | Test I rating (disease control) [2]: 98% | Test A rating (disease control) (Botrytis cinerea): 99% | Test B rating (disease control) (Alternaria solani): 94% | Test H rating (disease control) [3]: 98% | Test E rating (disease control) (Septoria nodorum): 73% | Test C rating (disease control) (Phytophthora infestans): 0% | Test F rating (disease control) (Septoria tritici): 100%

CCOc1cc(F)c(-c2c(C)nn(C)c2Nc2c(Cl)cc(F)cc2Cl)c(F)c1 [compound 200]
Test G rating (% disease control) [1]: 0% | Test I rating (% disease control) [2]: 79% | Test A rating (% disease control) (Botrytis cinerea): 98% | Test B rating (% disease control) (Alternaria solani): 97% | Test H rating (% disease control) [3]: 86% | Test E rating (% disease control) (Septoria nodorum): 0% | Test C rating (% disease control) (Phytophthora infestans): 31% | Test F rating (% disease control) (Septoria tritici): 100%
